From ChEMBL document CHEMBL1255193, “Structure-based optimization of pyrazolo-pyrimidine and -pyridine inhibitors of PI3-kinase” (Bioorg Med Chem Lett, 2010)
≈ marks a conversion by molar mass, not a printed value.

Legend:
[1] = target: Phosphatidylinositol 4,5-bisphosphate 3-kinase catalytic subunit alpha isoform (Homo sapiens, UniProt P42336); experiment: Inhibition of PI3Kalpha
[2] = Plasma clearance in rat; format: ADME, organism-based
[3] = Solubility of the compound at pH 6.5; format: physicochemical; settings: buffer
[4] = Apparent permeability of the compound from apical to basolateral direction in MDCKI cells; format: ADME, cell-based, Canis lupus familiaris; settings: dog, MDCK
MDR1 = experiment: Apparent permeability of the compound from apical to basolateral direction in MDCKI cells expressing MDR1; format: ADME, cell-based, Canis lupus familiaris; settings: dog, MDCK-MDR1
Bcrp1 [5] = experiment: Apparent permeability of the compound from apical to basolateral direction in MDCK2 cells expressing Bcrp1; format: ADME, cell-based, Canis lupus familiaris, MDCK-II; settings: dog
[6] = Oral bioavailability in rat at 5 mg/kg; format: ADME, organism-based; settings: in vivo
[7] = Ratio of permeability from basolateral to apical over apical to basolateral side in MDCKI cells; settings: dog
[8] = Ratio of permeability from basolateral to apical over apical to basolateral side in MDCKI cells expressing MDR1; settings: dog
[9] = Ratio of permeability from basolateral to apical over apical to basolateral side in MDCK2 cells expressing Bcrp1; settings: dog, mdck-ii
MCF7 = experiment: Cytotoxicity against human MCF7 cells; format: functional, cell-based
Bcrp1 [10] = experiment: Apparent permeability of the compound from apical to basolateral direction in MDCK2 cells expressing Bcrp1 in presence of fumitremorgin C; format: ADME, cell-based, Canis lupus familiaris, MDCK-II; settings: dog, with fumitremorgin C
[11] = Ratio of permeability from […] side in MDCK2 cells expressing Bcrp1 in presence of fumitremorgin C; format: ADME, cell-based, Canis lupus familiaris; settings: dog, mdck-ii
[12] = target: Receptor-type tyrosine-protein kinase FLT3 (Homo sapiens) (UniProt P36888); experiment: Inhibition of FLT3 at 1 uM
Chain of Receptor-type tyrosine-protein kinase FLT3 (Homo sapiens) (P36888 whole entry): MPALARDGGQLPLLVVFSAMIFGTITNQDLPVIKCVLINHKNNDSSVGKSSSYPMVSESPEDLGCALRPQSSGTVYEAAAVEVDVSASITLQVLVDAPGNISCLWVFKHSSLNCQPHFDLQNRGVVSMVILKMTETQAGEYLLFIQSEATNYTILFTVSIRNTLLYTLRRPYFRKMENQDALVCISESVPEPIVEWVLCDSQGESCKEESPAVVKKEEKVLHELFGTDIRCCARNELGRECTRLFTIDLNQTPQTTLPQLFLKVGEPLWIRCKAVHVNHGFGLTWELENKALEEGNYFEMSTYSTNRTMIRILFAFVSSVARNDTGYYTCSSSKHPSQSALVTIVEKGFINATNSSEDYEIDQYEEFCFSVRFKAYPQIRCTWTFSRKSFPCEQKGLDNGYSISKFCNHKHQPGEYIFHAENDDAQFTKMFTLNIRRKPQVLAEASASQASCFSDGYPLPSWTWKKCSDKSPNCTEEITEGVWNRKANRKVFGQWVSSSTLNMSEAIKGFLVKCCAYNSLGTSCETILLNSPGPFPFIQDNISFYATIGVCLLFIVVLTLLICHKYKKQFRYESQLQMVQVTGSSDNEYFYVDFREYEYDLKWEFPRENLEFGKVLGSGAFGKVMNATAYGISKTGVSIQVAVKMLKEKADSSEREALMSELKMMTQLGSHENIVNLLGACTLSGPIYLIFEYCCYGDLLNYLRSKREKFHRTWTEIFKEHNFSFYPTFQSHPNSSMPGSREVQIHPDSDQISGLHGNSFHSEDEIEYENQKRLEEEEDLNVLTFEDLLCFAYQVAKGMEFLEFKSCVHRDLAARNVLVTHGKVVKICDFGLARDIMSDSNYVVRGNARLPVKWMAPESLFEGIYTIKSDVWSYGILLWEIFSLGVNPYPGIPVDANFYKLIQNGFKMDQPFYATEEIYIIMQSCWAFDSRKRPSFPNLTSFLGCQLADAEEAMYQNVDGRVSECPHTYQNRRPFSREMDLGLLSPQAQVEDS

[13] = Plasma protein binding in mouse; format: ADME, cell-free; settings: read-out: PPB (converted)
Mus musculus [14] = experiment: In vivo inhibition of PI3K in human PC3 cells xenografted athymic nude mouse assessed as reduction of phosphorylated Akt level at 50 mg/kg, po after 1 hr; format: functional; settings: PC-3, 1 h
Mus musculus [15] = experiment: In vivo inhibition of PI3K in human PC3 cells xenografted athymic nude mouse assessed as reduction of phosphorylated Akt level at 50 mg/kg, po after 6 hrs; format: functional; settings: PC-3, 6 h
Mus musculus [16] = experiment: In vivo inhibition of PI3K in human PC3 cells xenografted athymic nude mouse assessed as reduction of phosphorylated PRAS40 level at 50 mg/kg, po after 1 hr; format: functional; settings: PC-3, 1 h
Mus musculus [17] = experiment: In vivo inhibition of PI3K in human PC3 cells xenografted athymic nude mouse assessed as reduction of phosphorylated PRAS40 level at 50 mg/kg, po after 6 hrs; format: functional; settings: PC-3, 6 h
Mus musculus [18] = experiment: In vivo inhibition of PI3K in human PC3 cells xenografted athymic nude mouse assessed as reduction of phosphorylated S6RP level at 50 mg/kg, po after 1 hr; format: functional; settings: PC-3, 1 h
Mus musculus [19] = experiment: In vivo inhibition of PI3K in human PC3 cells xenografted athymic nude mouse assessed as reduction of phosphorylated S6RP level at 50 mg/kg, po after 6 hrs; format: functional; settings: PC-3, 6 h
[20] = target: DNA-dependent protein kinase catalytic subunit (Homo sapiens, UniProt P78527); experiment: Inhibition of DNA-PK
[21] = target: Serine/threonine-protein kinase mTOR (Homo sapiens, UniProt P42345); experiment: Inhibition of mTOR; settings: read-out: Ki(app)
[22] = Plasma clearance in human PC3 cells xenografted athymic nude mouse; format: ADME, organism-based, PC-3
[23] = Oral bioavailability in human PC3 cells xenografted athymic nude mouse at 5 mg/kg; format: ADME, organism-based, PC-3; settings: in vivo
[24] = Volume of distribution at steady state in human PC3 cells xenografted athymic nude mouse; format: ADME, organism-based, PC-3; settings: in vivo, read-out: Vdss
[25] = Inhibition of human Cytochrome P450; format: ADME
[26] = Metabolic stability in human hepatocytes assessed as compound remaining after 3 hrs; format: ADME, cell-based, Hepatocyte; settings: read-out: Stability
[27] = Metabolic stability in mouse hepatocytes assessed as compound remaining after 3 hrs; format: ADME, cell-based, Hepatocyte; settings: read-out: Stability

Chain of Phosphatidylinositol 4,5-bisphosphate 3-kinase catalytic subunit alpha isoform (P42336 whole entry, canonical isoform): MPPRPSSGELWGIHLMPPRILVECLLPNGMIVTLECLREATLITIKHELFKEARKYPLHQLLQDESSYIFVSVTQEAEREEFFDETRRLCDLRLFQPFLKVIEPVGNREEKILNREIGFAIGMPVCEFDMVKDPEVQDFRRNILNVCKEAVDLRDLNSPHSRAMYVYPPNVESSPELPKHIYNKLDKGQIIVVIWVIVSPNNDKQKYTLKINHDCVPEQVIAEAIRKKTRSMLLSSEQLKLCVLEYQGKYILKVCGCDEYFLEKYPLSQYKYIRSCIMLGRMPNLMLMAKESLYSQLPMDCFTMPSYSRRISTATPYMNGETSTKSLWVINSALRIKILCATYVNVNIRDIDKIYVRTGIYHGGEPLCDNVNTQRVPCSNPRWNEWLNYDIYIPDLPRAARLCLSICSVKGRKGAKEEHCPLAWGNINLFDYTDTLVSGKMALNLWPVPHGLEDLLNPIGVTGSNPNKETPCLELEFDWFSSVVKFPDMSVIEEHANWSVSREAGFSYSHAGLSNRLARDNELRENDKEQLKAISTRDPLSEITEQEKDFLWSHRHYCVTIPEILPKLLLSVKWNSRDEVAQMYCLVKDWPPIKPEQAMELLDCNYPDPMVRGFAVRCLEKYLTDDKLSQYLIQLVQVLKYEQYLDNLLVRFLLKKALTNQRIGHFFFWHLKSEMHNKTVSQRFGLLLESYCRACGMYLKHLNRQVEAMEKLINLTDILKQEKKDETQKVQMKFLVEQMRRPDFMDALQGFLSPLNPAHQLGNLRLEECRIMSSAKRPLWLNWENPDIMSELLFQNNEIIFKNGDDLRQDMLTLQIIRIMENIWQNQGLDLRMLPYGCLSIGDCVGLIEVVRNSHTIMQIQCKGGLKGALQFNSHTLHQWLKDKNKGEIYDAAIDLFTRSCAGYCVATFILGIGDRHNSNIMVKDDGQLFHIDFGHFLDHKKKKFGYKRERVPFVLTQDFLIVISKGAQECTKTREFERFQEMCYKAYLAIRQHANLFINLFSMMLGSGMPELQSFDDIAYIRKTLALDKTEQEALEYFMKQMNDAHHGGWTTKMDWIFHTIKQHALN

Cn1ncc2c(Oc3ccc(S(C)(=O)=O)cc3)nc(-c3cccc4[nH]ncc34)nc21
IC50 [1]: 3 nM
clearance [2]: 2 mL/min/kg
solubility [3]: 16 µg/mL (≈ 38.1 µM)
Papp A→B [4]: 2.5 ×10⁻⁶ cm/s
Papp A→B (MDR1): 0.8 ×10⁻⁶ cm/s
Papp A→B (Bcrp1 [5]): 0.05 ×10⁻⁶ cm/s
bioavailability [6]: 29%
Ratio [7]: 0.7
Ratio [8]: 4.2
Ratio [9]: 55.1

COc1cccc(Nc2nc(-c3cccc(OC)c3)nc3c2cnn3C)c1
IC50 [1]: 134 nM

Cn1ncc2c(-c3ccc(S(C)(=O)=O)cc3)nc(-c3cccc4[nH]ncc34)nc21
IC50 [1]: 4.9 nM
solubility [3]: < 1 µg/mL
Papp A→B [4]: 31.5 ×10⁻⁶ cm/s
Papp A→B (MDR1): 7.6 ×10⁻⁶ cm/s
Papp A→B (Bcrp1 [5]): 3.8 ×10⁻⁶ cm/s
Ratio [7]: 0.5
Ratio [8]: 3.2
Ratio [9]: 4.8

CN1CCC(Nc2nc(-c3cccc4[nH]ncc34)nc3c2cnn3C)CC1
IC50 [1]: 8.3 nM
EC50 (MCF7): 1500 nM
clearance [2]: 176 mL/min/kg

COc1cccc(Nc2nc(-c3cccc(S(C)(=O)=O)c3)nc3c2cnn3C)c1
IC50 [1]: 56 nM

Cn1ncc2c(Nc3ccc(S(C)(=O)=O)cc3)nc(-c3cccc4[nH]ncc34)nc21
IC50 [1]: 1.4 nM
EC50 (MCF7): 87 nM
clearance [2]: 20 mL/min/kg
solubility [3]: 7.1 µg/mL (≈ 16.9 µM)
Papp A→B [4]: 0.37 ×10⁻⁶ cm/s
Papp A→B (MDR1): 0.13 ×10⁻⁶ cm/s
Papp A→B (Bcrp1 [5]): 0.03 ×10⁻⁶ cm/s
bioavailability [6]: 0%
Papp A→B (Bcrp1 [10]): 0.63 ×10⁻⁶ cm/s
Ratio [11]: 17.6
Ratio [7]: 6.7
Ratio [8]: 79
Ratio [9]: 311

COc1cccc(Nc2nc(-c3cnc(N)nc3)nc3c2cnn3C)c1
IC50 [1]: 16 nM

COc1cccc(Nc2nc(-c3cccc(C(N)=O)c3)nc3c2cnn3C)c1
IC50 [1]: 72 nM

COc1cccc(Nc2nc(-c3cccc4onc(C)c34)nc3c2cnn3C)c1
IC50 [1]: 1.7 nM

COc1cccc(Nc2nc(N3CCC(O)CC3)nc3c2cnn3C)c1
IC50 [1]: 430 nM

Cn1ncc2c(NCCCS(C)(=O)=O)nc(-c3cccc4n[nH]cc34)nc21
EC50 (MCF7): 403 nM
clearance [2]: 139 mL/min/kg

COc1cccc(Nc2nc(-c3cccnc3)nc3c2cnn3C)c1
IC50 [1]: 29 nM

COc1cccc(Nc2nc(N3CCOCC3)nc3c2cnn3C)c1
IC50 [1]: 162 nM

COc1cccc(Nc2nc(-c3cccc4[nH]nc(N)c34)nc3c2cnn3C)c1
IC50 [1]: 11 nM

Cn1ncc2c(NCC(C)(C)CO)nc(-c3cccc4[nH]ncc34)nc21
IC50 [1]: 1.1 nM
clearance [2]: 103 mL/min/kg

COc1cccc(Nc2nc(-c3cccc4[nH]ncc34)nc3c2cnn3C)c1
IC50 [1]: 1.4 nM

CNC(=O)c1cccc(-c2nc(Nc3cccc(OC)c3)c3cnn(C)c3n2)c1
IC50 [1]: 3640 nM

Cn1ncc2c(Oc3ccc(S(C)(=O)=O)cc3)cc(-c3cccc4[nH]ncc34)nc21
clearance [2]: 8.4 mL/min/kg
solubility [3]: 15 µg/mL (≈ 35.8 µM)
Papp A→B [4]: 13.9 ×10⁻⁶ cm/s
Papp A→B (MDR1): 1.2 ×10⁻⁶ cm/s
bioavailability [6]: 107%
inhibition [12]: 27%
fraction unbound [13]: 0.012
inhibition in vivo at 50 mg/kg (Mus musculus [14]): 44%
inhibition in vivo at 50 mg/kg (Mus musculus [15]): 34%
inhibition in vivo at 50 mg/kg (Mus musculus [16]): 23%
inhibition in vivo at 50 mg/kg (Mus musculus [17]): 11%
inhibition in vivo at 50 mg/kg (Mus musculus [18]): 36%
inhibition in vivo at 50 mg/kg (Mus musculus [19]): 17%
IC50 [20]: 1020 nM
Ki [21]: > 10000 nM
clearance [22]: 12.7 mL/min/kg
bioavailability [23]: 110%
Vd [24]: 1.1 L/kg
IC50 [25]: > 20000 nM
remaining at 3 h [26]: 94%
remaining at 3 h [27]: 100%

COc1cccc(Nc2nc(N3CCCCC3)nc3c2cnn3C)c1
IC50 [1]: 359 nM

COc1cccc(Nc2nc(-c3cccc(NC(C)=O)c3)nc3c2cnn3C)c1
IC50 [1]: 386 nM

COc1cccc(Nc2nc(N3CC(C)OC(C)C3)nc3c2cnn3C)c1 (stereo not drawn)
IC50 [1]: 370 nM
